Converted amounts (≈) assume the structure as drawn. *1 amine or outer side, *2 acyl side, *3 side chain or, on linkers, in order; H or OH if unused. Where a SMILES comes first, the peptide text is derived from it. Bridges are numbered along the chain shown (N, C = ends). The star is where a group is joined. C20 diacid = O=C(O)CCCCCCCCCCCCCCCCCCC(=O)*; γGlu = O=C(O)[C@H](CCC(=O)[*:2])N[*:1]
Key:
[1] = Agonist activity at human AMY3R (CT+RAMP3) expressed in Hollex1 cells incubated for 3 hrs by luminescence assay; assay type: cell-based; settings: Hollex1, 3 h
[2] = Agonist activity at human calcitonin receptor expressed in BHK570 cells assessed as increase in intracellular cAMP concentration incubated for 3 hrs in absence of albumin by CRE luciferase reporter gene assay; assay type: cell-based; settings: BHK570, 3 h
Homo sapiens [3] = organism: Homo sapiens; assay: Ratio of EC50 for human calcitonin receptor expressed in BHK570 cells to EC50 for human AMY3R (CT+RAMP3) expressed in Hollex1 cells; assay type: cell-based
[4] = Agonist activity at rat AMY3R (CT+RAMP3) expressed in tk-ts13 cells assessed as increase in intracellular cAMP level incuabted for 25 mins by CRE luciferase reporter gene assay; assay type: cell-based; settings: tk-ts13, 25 min
[5] = Agonist activity at rat calcitonin receptor expressed in BHK-13 cells assessed as increase in intracellular cAMP concentration incubated for 25 mins by CRE luciferase reporter gene assay; assay type: cell-based; settings: BHK-13, 25 min
Rattus norvegicus [6] = organism: Rattus norvegicus; assay: Ratio of EC50 for rat calcitonin receptor expressed in BHK-13 cells to EC50 for rat AMY3R (CT+RAMP3) expressed in tk-ts13 cells; assay type: cell-based
[7] = Solubility of the compound in lactate at pH 3 by UPLC analysis; assay type: physicochemical; settings: lactate buffer
[8] = Solubility of the compound in lactate at pH 4 by UPLC analysis; assay type: physicochemical; settings: lactate buffer
[9] = Solubility of the compound in lactate at pH 5 by UPLC analysis; assay type: physicochemical; settings: lactate buffer
[10] = Solubility of the compound in bis-tris propane at pH 6 by UPLC analysis; assay type: physicochemical; settings: bis-tris propane buffer
[11] = Solubility of the compound in bis-tris propane at pH 6.5 by UPLC analysis; assay type: physicochemical; settings: bis-tris propane buffer
[12] = Solubility of the compound in bis-tris propane at pH 7 by UPLC analysis; assay type: physicochemical; settings: bis-tris propane buffer
[13] = Solubility of the compound in bis-tris propane at pH 7.5 by UPLC analysis; assay type: physicochemical; settings: bis-tris propane buffer
[14] = Solubility of the compound in bis-tris propane at pH 8 by UPLC analysis; assay type: physicochemical; settings: bis-tris propane buffer
Insulin (Homo sapiens) [15] = biological target: Insulin (Homo sapiens) (UniProt P01308); assay: Effect on insulin (unknown origin) amyloid fibril formation assessed as lag time in glycyl-glycine buffer at pH 4 measured after 45 hrs by thioflavin-T fluorescence assay
Insulin (Homo sapiens) [16] = biological target: Insulin (Homo sapiens) (UniProt P01308); assay: Effect on insulin (unknown origin) amyloid fibril formation assessed as peptide recovery in glycyl-glycine buffer at pH 4 measured after 45 hrs by thioflavin-T fluorescence assay relative to control; set-up: concentration or dose not given beside the values
Insulin (Homo sapiens) [17] = biological target: Insulin (Homo sapiens) (UniProt P01308); assay: Effect on insulin (unknown origin) amyloid fibril formation assessed as lag time in HEPES buffer at pH 7.5 measured after 45 hrs by thioflavin-T fluorescence assay
Rattus norvegicus [18] = assay: Reduction in food intake in Sprague-Dawley rat at 3 nmol/kg, sc administered as single dose measured upto 24 hrs relative to control; assay type: functional; set-up: scale not given: the % may be the effect or the level left; settings: time hrs <=24
Rattus norvegicus [19] = assay: Reduction in food intake in Sprague-Dawley rat at 3 nmol/kg, sc administered as single dose measured after 24 to 48 hrs relative to control; assay type: functional; set-up: scale not given: the % may be the effect or the level left; settings: time 24-48 hrs
Insulin (Homo sapiens) [20] = biological target: Insulin (Homo sapiens) (UniProt P01308); assay: Effect on insulin (unknown origin) amyloid fibril formation assessed as peptide recovery in HEPES buffer at pH 7.5 measured after 45 hrs by thioflavin-T fluorescence assay relative to control
[21] = Displacement of [125I]-amylin from human AMY3R (CTR+RAMP3) expressed in BHK-13 cells measured after 120 mins by scintillation proximity assay; assay type: cell-based
[22] = Displacement of [125I]-calcitonin from human calcitonin receptor expressed in tk-ts 13 cells measured after 120 mins by scintillation proximity assay; assay type: cell-based; settings: tk-ts13
Homo sapiens [23] = organism: Homo sapiens; assay: Ratio of IC50 for displacement of [125I]-calcitonin from human calcitonin receptor expressed in tk-ts 13 cells to IC50 for displacement of [125I]-amylin from human AMY3R (CTR+RAMP3) expressed in BHK-13 cells; assay type: cell-based
[24] = Displacement of [125I]-amylin from rat AMY3R (CTR+RAMP3) expressed in BHK-13 cells measured after 120 mins by scintillation proximity assay; assay type: cell-based
[25] = Displacement of [125I]-calcitonin from rat calcitonin receptor expressed in tk-ts 13 cells measured after 120 mins by scintillation proximity assay; assay type: cell-based; settings: tk-ts13
Rattus norvegicus [26] = organism: Rattus norvegicus; assay: Ratio of IC50 for displacement of [125I]-calcitonin from rat calcitonin receptor expressed in tk-ts 13 cells to IC50 for displacement of [125I]-amylin from rat AMY3R (CTR+RAMP3) expressed in BHK-13 cells; assay type: cell-based

Sequence of Insulin (Homo sapiens) (P01308 whole entry): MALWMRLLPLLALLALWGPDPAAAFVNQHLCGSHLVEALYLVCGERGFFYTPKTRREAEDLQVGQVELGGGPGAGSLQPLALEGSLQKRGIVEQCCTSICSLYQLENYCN

Structure (SMILES)	EC50 [1]	EC50 [2]	Ratio EC50 (Homo sapiens [3])	EC50 [4]	EC50 [5]	Ratio EC50 (Rattus norvegicus [6])	solubility [7]	solubility [8]	solubility [9]	solubility [10]	solubility [11]	solubility [12]	solubility [13]	solubility [14]	TIME (Insulin (Homo sapiens) [15])	Activity (Insulin (Homo sapiens) [16])	TIME (Insulin (Homo sapiens) [17])	Activity (Rattus norvegicus [18])	Activity (Rattus norvegicus [19])	Activity (Insulin (Homo sapiens) [20])	further results
CC[C@H](C)[C@H](NC(=O)[C@@H]1CCCN1C(=O)CNC(=O)[C@H](Cc1ccccc1)NC(=O)[C@H](CC(N)=O)NC(=O)[C@H](CC(N)=O)NC(=O)[C@H](CO)NC(=O)[C@H](CO)NC(=O)[C@H](Cc1c[nH]cn1)NC(=O)[C@H](Cc1cnc[nH]1)NC(=O)[C@H](CC(C)C)NC(=O)[C@H](Cc1ccccc1)NC(=O)[C@H](CCC(=O)O)NC(=O)[C@H](C)NC(=O)[C@H](CC(C)C)NC(=O)[C@H](CCCNC(=N)N)NC(=O)[C@H](CCC(N)=O)NC(=O)[C@@H](NC(=O)[C@H](C)NC(=O)[C@@H]1CSSC[C@H](NC(=O)[C@H](CCCCN)NC(=O)CC[C@H](NC(=O)CC[C@H](NC(=O)CCCCCCCCCCCCCCCCCCC(=O)O)C(=O)O)C(=O)O)C(=O)N[C@@H](CC(N)=O)C(=O)N[C@@H]([C@@H](C)O)C(=O)N[C@@H](C)C(=O)N[C@@H]([C@@H](C)O)C(=O)N1)[C@@H](C)O)C(=O)N[C@@H](CC(C)C)C(=O)N1CCC[C@H]1C(=O)N1CCC[C@H]1C(=O)N[C@H](C(=O)N[C@@H](CC(N)=O)C(=O)N[C@H](C(=O)NCC(=O)N[C@@H](CO)C(=O)N[C@@H](Cc1cnc[nH]1)C(=O)N[C@H](C(=O)N[C@@H](Cc1ccc(O)cc1)C(N)=O)[C@@H](C)O)C(C)C)[C@@H](C)O ({C20 diacid-γGlu-γGlu}-KCNTATCATQRLAEFLHHSSNNFGPILPPTNVGSHTY-NH2; disulfide 2-7)	0.297 nM	0.347 nM	1	0.623 nM	4.97 nM	8	200 µM (≈ 922 µg/mL)	200 µM (≈ 922 µg/mL)	200 µM (≈ 922 µg/mL)	200 µM (≈ 922 µg/mL)	200 µM (≈ 922 µg/mL)	200 µM (≈ 922 µg/mL)	200 µM (≈ 922 µg/mL)	200 µM (≈ 922 µg/mL)	16 h	35%	4 h	46%	21%		
CC[C@H](C)[C@H](NC(=O)[C@@H]1CCCN1C(=O)CNC(=O)[C@H](Cc1ccccc1)NC(=O)[C@H](CO)NC(=O)[C@H](CO)NC(=O)[C@H](CO)NC(=O)[C@H](CO)NC(=O)[C@H](CCCNC(=N)N)NC(=O)[C@H](Cc1cnc[nH]1)NC(=O)[C@H](CC(C)C)NC(=O)[C@H](Cc1ccccc1)NC(=O)[C@H](CCC(=O)O)NC(=O)[C@H](C)NC(=O)[C@H](CC(C)C)NC(=O)[C@H](CCCNC(=N)N)NC(=O)[C@H](CCC(N)=O)NC(=O)[C@@H](NC(=O)[C@H](C)NC(=O)[C@@H]1CSSC[C@H](NC(=O)[C@H](Cc2cnc[nH]2)NC(=O)CC[C@H](NC(=O)CCCCCCCCCCCCCCCCCCC(=O)O)C(=O)O)C(=O)N[C@@H](CC(N)=O)C(=O)N[C@@H]([C@@H](C)O)C(=O)N[C@@H](C)C(=O)N[C@@H]([C@@H](C)O)C(=O)N1)[C@@H](C)O)C(=O)N[C@@H](CC(C)C)C(=O)N1CCC[C@H]1C(=O)N1CCC[C@H]1C(=O)N[C@H](C(=O)N[C@@H](CC(=O)O)C(=O)N[C@H](C(=O)NCC(=O)N[C@@H](CO)C(=O)N[C@@H](CC(=O)O)C(=O)N[C@H](C(=O)N[C@@H](Cc1ccc(O)cc1)C(N)=O)[C@@H](C)O)C(C)C)[C@@H](C)O ({C20 diacid-γGlu}-HCNTATCATQRLAEFLHRSSSSFGPILPPTDVGSDTY-NH2; disulfide 2-7)	0.166 nM	0.18 nM	1	0.278 nM	1.58 nM	6	200 µM (≈ 886 µg/mL)		5 µM (≈ 22.2 µg/mL)	200 µM (≈ 886 µg/mL)	200 µM (≈ 886 µg/mL)	200 µM (≈ 886 µg/mL)	200 µM (≈ 886 µg/mL)	200 µM (≈ 886 µg/mL)	45 h	57%	45 h			94%	
CC[C@H](C)[C@H](NC(=O)[C@@H]1CCCN1C(=O)CNC(=O)[C@H](Cc1ccccc1)NC(=O)[C@H](CC(N)=O)NC(=O)[C@H](CC(N)=O)NC(=O)[C@H](CO)NC(=O)[C@H](CO)NC(=O)[C@H](Cc1c[nH]cn1)NC(=O)[C@H](Cc1cnc[nH]1)NC(=O)[C@H](CC(C)C)NC(=O)[C@H](Cc1ccccc1)NC(=O)[C@H](CCC(=O)O)NC(=O)[C@H](C)NC(=O)[C@H](CC(C)C)NC(=O)[C@H](CCCNC(=N)N)NC(=O)[C@H](CCC(N)=O)NC(=O)[C@@H](NC(=O)[C@H](C)NC(=O)[C@@H]1CSSC[C@H](NC(=O)[C@H](CCCCN)NC(=O)CC[C@H](NC(=O)CCCCCCCCCCCCCCCCCCC(=O)O)C(=O)O)C(=O)N[C@@H](CC(N)=O)C(=O)N[C@@H]([C@@H](C)O)C(=O)N[C@@H](C)C(=O)N[C@@H]([C@@H](C)O)C(=O)N1)[C@@H](C)O)C(=O)N[C@@H](CC(C)C)C(=O)N1CCC[C@H]1C(=O)N1CCC[C@H]1C(=O)N[C@H](C(=O)N[C@@H](CC(N)=O)C(=O)N[C@H](C(=O)NCC(=O)N[C@@H](CO)C(=O)N[C@@H](CC(N)=O)C(=O)N[C@H](C(=O)N1CCC[C@H]1C(N)=O)[C@@H](C)O)C(C)C)[C@@H](C)O ({C20 diacid-γGlu}-KCNTATCATQRLAEFLHHSSNNFGPILPPTNVGSNTP-NH2; disulfide 2-7)	0.061 nM	0.052 nM	1	0.158 nM	0.076 nM		200 µM (≈ 878 µg/mL)	200 µM (≈ 878 µg/mL)	200 µM (≈ 878 µg/mL)	200 µM (≈ 878 µg/mL)	200 µM (≈ 878 µg/mL)	200 µM (≈ 878 µg/mL)	200 µM (≈ 878 µg/mL)	200 µM (≈ 878 µg/mL)	45 h	92%	11 h	62%	74%	19%	IC50 [21]: 0.186 nM; IC50 [22]: 0.115 nM; Ratio IC50 (Homo sapiens [23]): 1; IC50 [24]: 0.027 nM; IC50 [25]: 0.018 nM; Ratio IC50 (Rattus norvegicus [26]): 1

From ChEMBL document CHEMBL4842340, “Development of Cagrilintide, a Long-Acting Amylin Analogue” (J Med Chem, 2021)
